{"source": "patent US7563805B2", "about": "“Tri-, tetra-substituted-3-aminopyrrolidine derivative” (Daiichi Pharmaceutical Co., Ltd., priority 2005, dated 2009)", "key": {"hERG K+ channel": {"molecular_target": "hERG K+ channel (Homo sapiens, UniProt Q12809)", "sequence (Q12809 whole entry)": "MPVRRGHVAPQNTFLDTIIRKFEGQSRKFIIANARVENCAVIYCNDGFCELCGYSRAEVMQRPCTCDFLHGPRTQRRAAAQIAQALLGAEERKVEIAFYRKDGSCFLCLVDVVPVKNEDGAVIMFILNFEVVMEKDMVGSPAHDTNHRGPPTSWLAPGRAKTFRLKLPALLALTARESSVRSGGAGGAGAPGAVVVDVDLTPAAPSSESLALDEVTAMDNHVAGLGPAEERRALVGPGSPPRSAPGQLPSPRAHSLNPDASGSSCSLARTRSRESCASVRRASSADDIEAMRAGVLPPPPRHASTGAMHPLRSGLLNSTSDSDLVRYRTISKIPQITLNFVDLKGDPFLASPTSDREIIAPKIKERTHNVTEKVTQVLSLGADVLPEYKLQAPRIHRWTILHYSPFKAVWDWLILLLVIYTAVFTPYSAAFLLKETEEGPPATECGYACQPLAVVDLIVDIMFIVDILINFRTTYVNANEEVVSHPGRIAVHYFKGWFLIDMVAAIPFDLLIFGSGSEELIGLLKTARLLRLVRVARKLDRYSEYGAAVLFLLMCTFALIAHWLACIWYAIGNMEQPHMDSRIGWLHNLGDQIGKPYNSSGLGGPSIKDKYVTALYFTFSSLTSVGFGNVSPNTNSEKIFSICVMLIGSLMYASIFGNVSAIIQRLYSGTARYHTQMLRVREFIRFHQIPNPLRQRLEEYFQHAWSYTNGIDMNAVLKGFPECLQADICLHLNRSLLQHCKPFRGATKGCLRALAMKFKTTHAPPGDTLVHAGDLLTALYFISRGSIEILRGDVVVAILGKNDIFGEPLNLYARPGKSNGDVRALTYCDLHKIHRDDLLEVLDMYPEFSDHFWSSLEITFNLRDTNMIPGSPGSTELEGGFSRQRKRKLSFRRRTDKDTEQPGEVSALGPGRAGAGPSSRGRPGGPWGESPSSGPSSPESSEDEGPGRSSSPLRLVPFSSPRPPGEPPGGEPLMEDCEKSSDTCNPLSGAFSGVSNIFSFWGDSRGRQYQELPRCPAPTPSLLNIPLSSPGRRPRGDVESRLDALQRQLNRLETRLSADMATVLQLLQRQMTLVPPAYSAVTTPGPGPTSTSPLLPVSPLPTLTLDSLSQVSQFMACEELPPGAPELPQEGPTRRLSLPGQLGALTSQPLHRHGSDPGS", "test": "hERG-K^+ channel blocking effect"}, "[1]": {"test_system": "Mycobacterium tuberculosis (sensitive bacteria)", "test": "anti-Mycobacterium tuberculosis (sensitive bacteria) activity, MIC", "format": "cell-based"}, "[2]": {"test_system": "Mycobacterium tuberculosis (quinolone sensitive)", "test": "anti-Mycobacterium tuberculosis (quinolone sensitive) activity, MIC", "format": "cell-based"}}, "data": [{"smiles": "CCC1CN(c2c(F)cc3c(=O)c(C(=O)O)cn([C@@H]4C[C@@H]4F)c3c2OC)CC1(C)N", "note": "(relative stereo) [Example 14, 7-[(3R*,4R*)-3-Amino-4-ethyl-3-methylpyrrolidin-1-yl]-6-fluoro-1-[(1R,2S)-2-fluorocyclopropyl]-8-methoxy-1,4-dihydro-4-oxoquinoline-3-carboxylic acid]", "values": [{"measurement": "melting point", "result": "167 to 169", "unit": "°C"}]}, {"smiles": "COc1c(N2CC(F)[C@](C)(N)C2)c(F)cc2c(=O)c(C(=O)O)cn([C@@H]3C[C@@H]3F)c12", "note": "(single isomer, unassigned) [Example 25]", "values": [{"measurement": "melting point", "result": "160 to 163", "unit": "°C"}, {"measurement": "inhibition at 30 µM", "setting": "hERG K+ channel", "result": "2 ± 7.2", "unit": "%"}, {"measurement": "inhibition at 100 µM", "setting": "hERG K+ channel", "result": "4.2 ± 7.9", "unit": "%"}, {"measurement": "inhibition at 300 µM", "setting": "hERG K+ channel", "result": "17.1 ± 14.4", "unit": "%"}]}, {"smiles": "COc1c(N2CC(F)[C@](C)(N)C2)c(F)cc2c(=O)c(C(=O)O)cn([C@@H]3C[C@@H]3F)c12", "note": "(single isomer, unassigned) [Example 26]", "values": [{"measurement": "melting point", "result": "206 to 208", "unit": "°C"}]}, {"smiles": "COc1c(N2CC(OC)C(C)(N)C2)c(F)cc2c(=O)c(C(=O)O)cn([C@@H]3C[C@@H]3F)c12", "note": "(stereo partly drawn) [Example 18, 7-(3-Amino-4-methoxy-3-methylpyrrolidine-1-yl)-6-fluoro-1-[(1R,2S)-2-fluorocyclopropyl]-8-methoxy-1,4-dihydro-4-oxoquinoline-3-carboxylic acid]", "values": [{"measurement": "melting point", "result": "150 to 151", "unit": "°C"}]}, {"smiles": "COc1c(N2CC(OC)C(C)(N)C2)c(F)cc2c(=O)c(C(=O)O)cn([C@@H]3C[C@@H]3F)c12", "note": "(stereo partly drawn) [Example 19, 7-(3-Amino-4-methoxy-3-methylpyrrolidine-1-yl)-6-fluoro-1-[(1R,2S)-2-fluorocyclopropyl]-8-methoxy-1,4-dihydro-4-oxoquinoline-3-carboxylic acid]", "values": [{"measurement": "melting point", "result": "162 to 163", "unit": "°C"}]}, {"smiles": "COc1c(N2C[C@H](CF)[C@](C)(N)C2)c(F)cc2c(=O)c(C(=O)O)cn([C@@H]3C[C@@H]3F)c12", "note": "[Example 20, 7-[(3S,4S)-3-Amino-4-fluoromethyl-3-methylpyrrolidin-1-yl]-6-fluoro-1-[(1R,2S)-2-fluoro-1-cyclopropyl]-8-methoxy-1,4-dihydro-4-oxoquinoline-3-carboxylic acid]", "values": [{"measurement": "melting point", "result": "187 to 189", "unit": "°C"}, {"measurement": "inhibition at 30 µM", "setting": "hERG K+ channel", "result": "1.4 ± 4.5", "unit": "%"}, {"measurement": "inhibition at 100 µM", "setting": "hERG K+ channel", "result": "8.5 ± 6.1", "unit": "%"}, {"measurement": "inhibition at 300 µM", "setting": "hERG K+ channel", "result": "14.5 ± 6", "unit": "%"}]}, {"smiles": "COc1c(N2C[C@@H](CF)[C@@](C)(N)C2)c(F)cc2c(=O)c(C(=O)O)cn([C@@H]3C[C@@H]3F)c12", "note": "[Example 24, 7-[(3R,4R)-3-Amino-4-fluoromethyl-3-methylpyrrolidin-1-yl]-6-fluoro-1-[(1R,2S)-2-fluoro-1-cyclopropyl]-8-methoxy-1,4-dihydro-4-oxoquinoline-3-carboxylic acid]", "values": [{"measurement": "melting point", "result": "185 to 188", "unit": "°C"}]}, {"smiles": "CO[C@H]1/C=C/O[C@@]2(C)Oc3c(C)c(O)c4c(O)c(c(/C=N/N5CCN(C)CC5)c(O)c4c3C2=O)NC(=O)/C(C)=C\\C=C\\[C@H](C)[C@H](O)[C@@H](C)[C@@H](O)[C@@H](C)[C@H](OC(C)=O)[C@@H]1C", "note": "[RFP, Rifampicin]", "values": [{"measurement": "MIC", "setting": "[1]; H37RV, strain H37Rv", "result": 0.125, "unit": "µg/mL"}, {"measurement": "MIC", "setting": "[1]; strain Kurono", "result": 0.06, "unit": "µg/mL"}, {"measurement": "MIC", "setting": "[1]; strain Ravenel", "result": 0.125, "unit": "µg/mL"}, {"measurement": "MIC", "setting": "[1]; strain TB-s 2", "result": 0.03, "unit": "µg/mL"}, {"measurement": "MIC", "setting": "[1]; strain TB-s 3", "result": 0.125, "unit": "µg/mL"}, {"measurement": "MIC", "setting": "[1]; strain TB-s 4", "result": 0.06, "unit": "µg/mL"}, {"measurement": "MIC", "setting": "[1]; strain TB-s 5", "result": 0.06, "unit": "µg/mL"}, {"measurement": "MIC", "setting": "[1]; strain TB-s 6", "result": 0.125, "unit": "µg/mL"}, {"measurement": "MIC", "setting": "[1]; strain TB-s 7", "result": 0.06, "unit": "µg/mL"}, {"measurement": "MIC", "setting": "[1]; strain TB-s 8", "result": 0.015, "unit": "µg/mL"}, {"measurement": "MIC", "setting": "[1]; strain TB-s 9", "result": 0.06, "unit": "µg/mL"}, {"measurement": "MIC", "setting": "[1]; strain TB-s 10", "result": 0.06, "unit": "µg/mL"}, {"measurement": "MIC", "setting": "[1]; strain TB-s 11", "result": 0.06, "unit": "µg/mL"}, {"measurement": "MIC", "setting": "[1]; strain TB-s 12", "result": 0.125, "unit": "µg/mL"}, {"measurement": "MIC", "setting": "[1]; strain TB-s 13", "result": 0.06, "unit": "µg/mL"}, {"measurement": "MIC", "setting": "[1]; strain TB-s 14", "result": 0.03, "unit": "µg/mL"}, {"measurement": "MIC", "setting": "[1]; strain TB-s 15", "result": 0.06, "unit": "µg/mL"}, {"measurement": "MIC", "setting": "[1]; strain TB-s 16", "result": 0.06, "unit": "µg/mL"}, {"measurement": "MIC", "setting": "[1]; strain TB-s 17", "result": 0.06, "unit": "µg/mL"}, {"measurement": "MIC", "setting": "[1]; strain TB-s 18", "result": 0.03, "unit": "µg/mL"}, {"measurement": "MIC", "setting": "[1]; strain TB-s 19", "result": 0.125, "unit": "µg/mL"}, {"measurement": "MIC", "setting": "[1]; strain TB-s 20", "result": 0.25, "unit": "µg/mL"}, {"measurement": "MIC", "setting": "[1]; strain TB-s 21", "result": 0.03, "unit": "µg/mL"}, {"measurement": "MIC", "setting": "[1]; strain TB-s 22", "result": 0.015, "unit": "µg/mL"}, {"measurement": "MIC", "setting": "[2]; strain 1 (QR-3)", "result": "> 128", "unit": "µg/mL"}, {"measurement": "MIC", "setting": "[2]; strain 2 (QR-6)", "result": "> 128", "unit": "µg/mL"}, {"measurement": "MIC", "setting": "[2]; strain 3 (QR-1)", "result": 128, "unit": "µg/mL"}, {"measurement": "MIC", "setting": "[2]; strain 4 (QR-9)", "result": "> 128", "unit": "µg/mL"}, {"measurement": "MIC", "setting": "[2]; strain MDR 1", "result": 16, "unit": "µg/mL"}, {"measurement": "MIC", "setting": "[2]; strain MDR 3", "result": 128, "unit": "µg/mL"}, {"measurement": "MIC", "setting": "[2]; strain MDR 4", "result": 64, "unit": "µg/mL"}, {"measurement": "MIC", "setting": "[2]; strain MDR 5", "result": 32, "unit": "µg/mL"}, {"measurement": "MIC", "setting": "[2]; strain MDR 7", "result": "> 128", "unit": "µg/mL"}, {"measurement": "MIC", "setting": "[2]; strain MDR 9", "result": 128, "unit": "µg/mL"}, {"measurement": "MIC", "setting": "[2]; strain MDR 12", "result": 128, "unit": "µg/mL"}, {"measurement": "MIC", "setting": "[2]; strain S 1", "result": 16, "unit": "µg/mL"}]}]}
